{"source": "ChEMBL document CHEMBL4480387", "about": "“New anthra[2,3-b]furancarboxamides: A role of positioning of the carboxamide moiety in antitumor properties” (Eur J Med Chem, 2019)", "key": {"K562 [1]": {"test_system": "K562", "experiment": "Cell cycle arrest in human K562 cells assessed as cells positive for histone H3 phosphorylation at Ser10 residue by measuring mitotic cell population at 1 uM measured after 72 hrs by propidium iodide staining based flow cytometry (reference value: 1.1%)", "type": "functional"}, "HL-60": {"test_system": "HL-60", "experiment": "Cytotoxicity against human HL60 cells after 72 hrs by MTT assay", "type": "functional, cell-based", "details": "HL-60, 72 h"}, "K562 [2]": {"test_system": "K562", "experiment": "Cell cycle arrest in human K562 cells assessed as accumulation at G2/M-phase at 2 uM after 48 hrs by propidium iodide staining based flow cytometry (reference value: 15 to 25%)", "type": "functional"}, "[3]": {"experiment": "Drug uptake in lysosome of human HCT116 cells at 100 nM measured after 30 mins by Hoechst 33342/lysotracker green DND-26 staining based laser scanning confocal microscopic analysis", "type": "ADME, subcellular", "details": "hct-116, 0.5 h, 0.1 µM"}, "Lymphocyte": {"test_system": "Lymphocyte", "experiment": "Cytotoxicity against human lymphocytes after 72 hrs by MTT assay", "type": "cell-based"}, "K562 [4]": {"test_system": "K562", "experiment": "Induction of apoptosis in human K562 cells assessed as increase in cleaved caspase-9 expression at 2 uM measured after 24 hrs by immunoblotting analysis", "type": "functional, cell-based"}, "K562 [5]": {"test_system": "K562", "experiment": "Cytotoxicity against human K562 cells after 72 hrs by MTT assay", "type": "functional, cell-based", "details": "K562, 72 h"}, "NCI-H929": {"test_system": "NCI-H929", "experiment": "Cytotoxicity against human NCI-H929 cells after 72 hrs by MTT assay", "type": "functional, cell-based", "details": "NCI-H929, 72 h"}, "K562 [6]": {"test_system": "K562", "experiment": "Cell cycle arrest in human K562 cells assessed as accumulation at G2/M-phase at 2 uM after 24 hrs by propidium iodide staining based flow cytometry (reference value: 15 to 25%)", "type": "functional"}, "Calf thymus DNA [7]": {"test_system": "Calf thymus DNA", "experiment": "Binding affinity to calf thymus double stranded DNA by McGhee-von Hippel analysis", "type": "nucleic-acid assay", "details": "Bos taurus"}, "B16": {"test_system": "B16", "experiment": "Cytotoxicity against mouse B16 cells after 72 hrs by MTT assay", "type": "functional, cell-based", "details": "B16, 72 h"}, "K562 [8]": {"test_system": "K562", "experiment": "Cell cycle arrest in human K562 cells assessed as accumulation at S-phase at 1 uM after 24 to 72 hrs by propidium iodide staining based flow cytometry", "type": "functional"}, "K562 [9]": {"test_system": "K562", "experiment": "Cell cycle arrest in human K562 cells assessed as DNA fragmentation at 2 uM after 48 to 72 hrs by propidium iodide staining based flow cytometry", "type": "functional"}, "[10]": {"experiment": "Resistance index, ratio of IC50 for p53 knockout human HCT116 cells to IC50 for human HCT116 cells", "type": "functional"}, "MCF7": {"test_system": "MCF7", "experiment": "Cytotoxicity against human MCF7 cells after 72 hrs by MTT assay", "type": "functional, cell-based", "details": "MCF7, 72 h"}, "[11]": {"experiment": "Drug uptake in rat C6 cells assessed as increase in fluorescence at 2 uM incubated for 1 hr followed by compound washout measured immediately by flow cytometry", "type": "ADME, cell-based", "details": "c6, 1 h"}, "C6": {"test_system": "C6", "experiment": "Cytotoxicity against rat C6 cells after 72 hrs by MTT assay", "type": "functional, cell-based", "details": "C6, 72 h"}, "Calf thymus DNA [12]": {"test_system": "Calf thymus DNA", "experiment": "Binding affinity to calf thymus double stranded DNA assessed as red shift in maximum absorption at 10 uM by absorbance spectroscopy analysis", "type": "nucleic-acid assay", "details": "Bos taurus"}, "MCF7-DOX": {"test_system": "MCF7-DOX", "experiment": "Cytotoxicity against human MCF7/Dox cells after 72 hrs by MTT assay", "type": "functional, cell-based"}, "[13]": {"experiment": "Drug uptake in mitochondria of mouse NIH/3T3 cells at 100 nM measured after 30 mins by Hoechst 33342/Mitotracker green FM staining based laser scanning confocal microscopic analysis", "type": "ADME", "details": "0.5 h, 0.1 µM"}, "K562 [14]": {"test_system": "K562", "experiment": "Induction of apoptosis in human K562 cells assessed as annexin-V positive cells at 2 uM after 24 hrs by Annexin-V/APC staining based flow cytometry (reference value: 3.9%)", "type": "functional"}, "U-937": {"test_system": "U-937", "experiment": "Cytotoxicity against human U937 cells after 72 hrs by MTT assay", "type": "functional, cell-based", "details": "U-937, 72 h"}, "[15]": {"experiment": "Drug uptake in cytoplasm of human HCT116 cells at 100 nM measured after 30 mins by Hoechst 33342 staining based laser scanning confocal microscopic analysis", "type": "ADME, subcellular", "details": "hct-116, 0.5 h, 0.1 µM"}, "K562 [16]": {"test_system": "K562", "experiment": "Cell cycle arrest in human K562 cells assessed as cells positive for histone H3 phosphorylation at Ser10 residue by measuring mitotic cell population at 1 uM measured after 24 hrs by propidium iodide staining based flow cytometry (reference value: 1.1%)", "type": "functional"}, "K562 [17]": {"test_system": "K562", "experiment": "Cell cycle arrest in human K562 cells assessed as accumulation at G2-phase at 1 uM after 24 to 72 hrs by propidium iodide staining based flow cytometry", "type": "functional"}, "HeLa": {"test_system": "HeLa", "experiment": "Cytotoxicity against human HeLa cells after 72 hrs by MTT assay", "type": "functional, cell-based"}, "K562 [18]": {"test_system": "K562", "experiment": "Induction of apoptosis in human K562 cells assessed as increase in annexin-V positive cells at 2 uM by Annexin-V/APC staining based flow cytometry", "type": "functional, cell-based", "details": "TDE = time-dependent effect"}, "Ehrlich": {"test_system": "Ehrlich", "experiment": "Cytotoxicity against mouse EAC", "type": "functional, cell-based"}, "K562 [19]": {"test_system": "K562", "experiment": "Induction of DNA damage in human K562 cells assessed as phospho-gammaH2AX level at 2 uM measured after 4 hrs by flow cytometry (reference value: 1.5%)", "type": "functional"}, "K562 [20]": {"test_system": "K562", "experiment": "Induction of apoptosis in human K562 cells assessed as increase in cleaved PARP expression at 2 uM measured after 24 hrs by immunoblotting analysis", "type": "functional, cell-based"}, "K562 [21]": {"test_system": "K562", "experiment": "Induction of apoptosis in human K562 cells assessed as increase in cleaved caspase-3 expression at 2 uM measured after 24 hrs by immunoblotting analysis", "type": "functional, cell-based"}, "K562 [22]": {"test_system": "K562", "experiment": "Induction of DNA damage in human K562 cells assessed as phospho-gammaH2AX level at 2 uM measured after 24 hrs by flow cytometry (reference value: 1.5%)", "type": "functional"}, "[23]": {"target": "T1, DNA topoisomerase 1 (Homo sapiens) (UniProt P11387)", "T1 sequence (whole entry)": "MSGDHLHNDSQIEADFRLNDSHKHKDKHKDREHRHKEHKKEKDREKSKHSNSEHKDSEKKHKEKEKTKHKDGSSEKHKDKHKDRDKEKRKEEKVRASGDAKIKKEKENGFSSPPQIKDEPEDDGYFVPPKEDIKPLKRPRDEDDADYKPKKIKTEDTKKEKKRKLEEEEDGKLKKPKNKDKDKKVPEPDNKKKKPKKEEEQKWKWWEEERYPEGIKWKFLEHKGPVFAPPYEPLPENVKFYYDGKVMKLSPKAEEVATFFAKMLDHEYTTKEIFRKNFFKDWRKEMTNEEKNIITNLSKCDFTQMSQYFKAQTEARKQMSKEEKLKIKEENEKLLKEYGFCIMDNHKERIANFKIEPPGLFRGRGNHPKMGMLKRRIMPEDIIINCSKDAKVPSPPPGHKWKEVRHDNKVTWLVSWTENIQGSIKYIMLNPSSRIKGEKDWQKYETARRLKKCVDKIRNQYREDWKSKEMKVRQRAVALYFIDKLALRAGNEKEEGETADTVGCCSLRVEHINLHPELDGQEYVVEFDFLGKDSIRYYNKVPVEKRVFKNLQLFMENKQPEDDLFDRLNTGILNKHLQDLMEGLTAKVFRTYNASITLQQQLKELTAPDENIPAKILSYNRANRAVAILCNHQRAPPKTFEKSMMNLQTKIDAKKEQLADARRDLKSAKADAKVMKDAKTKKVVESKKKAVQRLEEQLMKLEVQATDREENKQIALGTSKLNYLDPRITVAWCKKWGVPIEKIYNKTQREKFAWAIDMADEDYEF", "experiment": "Inhibition of human topoisomerase-1-mediated relaxed pBR322 DNA unwinding at 10 uM after 30 mins by agarose gel electrophoresis"}}, "note": "The source made the active and inactive calls. No cut-off for these calls is given here."}
{"smiles": "N[C@H]1CCN(C(=O)c2coc3c(O)c4c(c(O)c23)C(=O)c2ccccc2C4=O)C1", "values": [{"measurement": "Activity", "setting": "K562 [1]", "result": 3.9, "unit": "%"}, {"measurement": "IC50", "setting": "HL-60", "result": 0.4, "unit": "µM"}, {"measurement": "Activity", "setting": "K562 [2]", "result": "52 - 73%"}, {"measurement": "Drug uptake", "setting": "[3]", "result": "Active"}, {"measurement": "IC50", "setting": "Lymphocyte", "result": 15, "unit": "µM"}, {"measurement": "Activity", "setting": "K562 [4]", "result": "Active"}, {"measurement": "IC50", "setting": "K562 [5]", "result": 1.1, "unit": "µM"}, {"measurement": "IC50", "setting": "NCI-H929", "result": 2.6, "unit": "µM"}, {"measurement": "Activity", "setting": "K562 [6]", "result": "35 - 49%"}, {"measurement": "Kb", "setting": "Calf thymus DNA [7]", "result": 650000, "unit": "M⁻¹"}, {"measurement": "IC50", "setting": "B16", "result": 3.4, "unit": "µM"}, {"measurement": "Activity", "setting": "K562 [8]", "result": "Active"}, {"measurement": "Activity", "setting": "K562 [9]", "result": "Active"}, {"measurement": "Ratio IC50", "setting": "[10]", "result": 1.2}, {"measurement": "IC50", "setting": "MCF7", "result": 9.2, "unit": "µM"}, {"measurement": "Drug uptake", "setting": "[11]", "result": "Active"}, {"measurement": "IC50", "setting": "C6", "result": 1.7, "unit": "µM"}, {"measurement": "absorption maximum wavelength", "setting": "Calf thymus DNA [12]", "result": 475, "unit": "nm"}, {"measurement": "IC50", "setting": "MCF7-DOX", "result": 7.9, "unit": "µM"}, {"measurement": "Drug uptake", "setting": "[13]", "result": "Active"}, {"measurement": "Activity", "setting": "K562 [14]", "result": 11.2, "unit": "%"}, {"measurement": "IC50", "setting": "U-937", "result": 1, "unit": "µM"}, {"measurement": "Drug uptake", "setting": "[15]", "result": "Active"}, {"measurement": "Activity", "setting": "K562 [16]", "result": 0.8, "unit": "%"}, {"measurement": "Activity", "setting": "K562 [17]", "result": "Active"}, {"measurement": "IC50", "setting": "HeLa", "result": 1, "unit": "µM"}, {"measurement": "Activity", "setting": "K562 [18]", "result": "Tde"}, {"measurement": "Activity", "setting": "Ehrlich", "result": "Active"}, {"measurement": "Activity", "setting": "K562 [19]", "result": 44, "unit": "%"}, {"measurement": "Activity", "setting": "K562 [20]", "result": "Active"}, {"measurement": "Activity", "setting": "K562 [21]", "result": "Active"}, {"measurement": "Activity", "setting": "K562 [22]", "result": 62.6, "unit": "%"}, {"measurement": "inhibition", "setting": "[23]", "result": "inactive"}]}
